Experimental findings from patent US9920092B1, “Composition having anti-oxidant, anti-aging, and autophagy activities and uses thereof” (Incospharm Corporation, priority 2017, dated 2018) are described below.

A word on the viability: it is a read-out of living cells in per cent, often relative to untreated cells.

Bounds are passed on as bounds.

The nature of experiment [1]: ABTS radical scavenging assay (in-vitro anti-oxidant activity). It counts as biochemical. As to conditions: absorbance at OD734 after 30 minutes; FIG. 3. How it is done: In order to measure in-vitro anti-oxidant activity of the compound represented by Structural Formula according to the present invention, ABTS radical scavenging assay was performed. When 2,2′-azino-bis-(3-ethylbenzothiazoline-6-sulfonic acid (ABTS) reacts with potassium persulfate, ABTS^+, which is an active cation, is formed, but in the case in which an anti-oxidant material is present in a test sample, ABTS^+ is removed by anti-oxidant activity, a greenish blue color, which is a peculiar color of ABTS^+, is decolorized, which may be measured as an absorbance value, thereby making it possible to evaluate the anti-oxidant activity.
As a specific experimental method, after mixing ABTS diammonium salt (7 mM) and potassium persulfate (2.45 mM) with each other in distilled water in order to activate stabilized ABTS diammonium salt, a reaction was carried out at room temperature for 16 hours, thereby forming an ABTS radical. After diluting the resultant in a phosphate buffer solution (PBS) to prepare a reaction solution so that an OD734 value was about 1.5, the reaction solution was mixed with vitamin C (Vit C), pyrrolidone carboxylic acid (PCA), or the compound represented by Structural Formula 1 disclosed in the present invention to induce a reaction. After 30 minutes, an amount of the remaining activated ABTS radical was analyzed by measuring absorbance at OD734.

Experiment [2] has as its system human epidermal keratinocyte cells. Nature of the experiment: Intracellular ROS by DCFH-DA dye and FACS scanning after H2O2. It counts as cell-based. As to conditions: 100 uM pre-treatment for 48 hours, 10 uM H2O2 10 minutes, FIG. 4. How it is done:
In order to measure an intercellular anti-oxidant activity of the compound represented by Structural Formula 1 according to the present invention, an amount of intracellular reactive oxygen species (ROS) was measured using 6-carboxy-2′,7′-dichlorofluorescein diacetate (DCFH-DA) dye and fluorescence activated cell sorter (FACS) scanning.
As a specific experimental method, human epidermal keratinocyte cells (Gibco BRL) were uniformly seeded onto a 600 culture dish (3×10^5 cells/dish) and cultured in an epilife medium (Gibco BRL) containing human keratinocyte growth supplement (HKGS, Gibco BRL) at 37° C. in a 5% CO2 incubator for 24 hours. Thereafter, the test materials (H2O2, vitamin C, and the compound represented by Structural Formula 1) were each dissolved in water at a concentration of 10 mM to prepare a concentrate, the prepared concentrate was diluted so as to have a concentration of 100 uM using the medium and put into a culture dish to treat the cells. Then, culturing was performed for 48 hours, and after the culturing was terminated, the medium was removed and the resultant was washed, thereby preparing a subsequent experiment. Next, 10 uM hydrogen peroxide was added thereto, the culturing was performed for 10 minutes, the resultant was washed again. […]

Experiment [3] concerns genes associated with anti-oxidation and autophagy. The experiment can be described thus: cDNA microarray of genes associated with anti-oxidation and autophagy. Type of experiment: cell-based. The method, then:
(§1) In order to find a cause of increasing an intracellular anti-oxidant activity by treatment with the compound represented by Structural Formula 1, cDNA microarray was performed, thereby confirming that transcription of several kinds of important genes associated with anti-oxidation and autophagy was increased. Proteins for the selected genes were quantified by western blot.

Experiment [4] relates to human epidermal keratinocyte cells. Nature of the experiment: Western blot of anti-oxidant and autophagy-related protein expression. Type of experiment: cell-based. As to conditions: 50, 100, or 200 um, 48 hours. How it is done: as §1
As a specific experimental method, after treating human epidermal keratinocyte cells (Gibco BRL) with the compound represented by Structural Formula 1 at a concentration of 50, 100, or 200 um while culturing the cells in a 600 culture dish, culturing was performed for 48 hours. After the culturing was terminated, a medium was removed, a RIPA lysis buffer containing protease inhibitor cocktail (2 ug/ml aprotinin, 5 ug/ml leupeptin, 1 ug/ml pepstatin A, 1 mM PMSF, 5 mM EDTA and 1 mM EGTA) was added thereto, thereby obtaining an entire cell homogenate. Thereafter, total proteins were quantified through microBCA assay (SMART micro BCA protein assay kit, Intron biotechnology), the cell homogenate (10 to 20 ug) was loaded on a SDS-PAGE gel, and respective proteins were isolated by electrophoresis and moved to a nitrocellulose membrane. […]
For orientation: A western blot detects proteins with antibodies after separation by electrophoresis.

For experiment [5] the test system is unchanged. Nature of the experiment: LC3 puncta assay (confocal microscope). Type of experiment: cell-based. As to conditions: 100 uM, 48 hours, anti-LC3 immunostaining; FIG. 7.
Method: As a specific experimental method, after 200 ul of poly-L-lysine (sigma) was put into each well of a 15 ul slide glass (Ibidi) and a reaction was carried out at room temperature for 30 minutes, followed by coating, human epidermal keratinocyte cells (Gibco BRL) were cultured and treated with respective test materials (rapamycin, compound represented by Structural Formula 1, and vitamin C) at a concentration of 100 uM. After the culturing for 48 hours was terminated, a medium was removed, and the cultured cells were fixed and blocked using formalin. Thereafter, the cells were labeled with anti-LC3 (Abfrontier) and anti-rabbit IgG-FITC (sigma), nucleus was stained with 4′,6′-diamidine-2′-phenylindole dihydrochloride (DAPI), and then, whether or not a puncta was formed in the cells was confirmed using a confocal microscope.
Experiment [6] concerns human dermal fibroblast cells. Nature of the experiment: Electron microscopy assay of autophagy structures. Type of experiment: cell-based. As to conditions: 50 uM, 24 hours; FIGS. 8 and 9. The method, then:
As a specific experimental method, after treating human dermal fibroblast cells with the compound represented by Structural Formula 1 at a concentration of 50 uM while culturing the cells, the culturing was performed for 24 hours. After the culturing was terminated, the cells were fixed, a paraffin block was prepared, and then, cell images were analyzed using an electron microscope.
An autophagy pathway starts from formation of an isolated precursor membrane having a cup shape, referred to as phagophore. The phagophore may form a double membrane […] known as autophagosome through initiation, nucleation, elongation, and closure processes. The autophagosome carries condensed proteins, organelles or pathogenic bacteria in damaged cells to lysosome in a captured state, and fused with lysosome to form autophagolysosome. The autophagolysosome decomposes the captured constituents in an acidic environment mediated by acid hydrolase.

Experiment [7] deals with human epidermal keratinocyte cells. Nature of the experiment: Cell protection effect against H2O2 oxidative stress (MTT). Type of experiment: cell-based. The settings on record: then 1 mM H2O2 4 hours. How it is done: Through the results in Examples 2 to 6, it was confirmed that expression of the anti-oxidant proteins and the autophagy-related proteins in cells was increased by the compound represented by Structural Formula 1, and thus, autophagy in the cells was activated. Therefore, in order to confirm whether or not activation of autophagy as described above may protect cells from cytotoxicity caused by ROS, follow-up research into a cell protection effect was conducted.
As a specific experiment method, after treating human epidermal keratinocyte cells (Gibco BRL) with respective test materials (vitamin C and the compound represented by Structural Formula 1) at 0.1 mM or 1 mM, respectively, while culturing the cells in a 96-well culture dish, the cells were cultured for 24 hours or 48 hours, the resultant was washed, and 1 mM H2O2 was added thereto, and additional culturing was performed for 4 hours. Thereafter, each of the wells was washed, 10 ul of 3-(4,5-dimethylthiazol-2-yl)-2,5-diphenyltetrazolium bromide (MTT) dissolved in PBS (5 mg/ml) was added to each of the wells, and a reaction was carried out at 37° C. under a 5% CO2 condition. Thereafter, a supernatant was carefully removed, MTT formazan precipitated in the cells was dissolved in 100 ul of DMSO, and then absorbance at OD570 was measured using an enzyme-linked immunosorbent assay (ELISA) reader.

As to `O=C(O)CN(CCCC[C@H](NC(=O)[C@H](CCCCN(CC(=O)O)CC(=O)O)N(CC(=O)O)CC(=O)O)C(=O)O)CC(=O)O` [2-[2,6-bis-(bis-carboxymethyl-amino)-hexanoyl-amino]-6-(bis-carboxymethyl-amino)-hexanoic acid], in experiment [1], the “scavenging activity on the activated ABTS radical” value was “concentration-dependent scavenging activity”. In addition, the “amount of intracellular ROS formed by treatment with H2O2” value in experiment [2] is reported as “almost disappeared”. Also, in experiment [3], the “transcription of genes associated with anti-oxidation and autophagy” value was “increased”. Moreover, in experiment [4] (FIG. 5), the “expression of proteins having high anti-oxidant activities (Prx2 monomer, Prx3, HSP70 based Grp75, HSP90B1, EPHX2, stanniocalcin2)” value is “increased”. Moreover, the “expression of proteins important in autophagy and detoxification activities (BiP, FoxO1, sirtuin5)” value in experiment [4] (FIG. 6) was “increased”. In addition, in experiment [5], the “formation of LC3 puncta in the cells” value is reported as “a large amount of a LC puncta”. For the same compound, in experiment [6], the number of autophagolysosome result is reported as “significantly increased”, the “number of autophagosome (increase by treatment)” value is reported as at least 2 times and the number of phagophore result is listed as “significantly increased”. Further, the cell viability entry in experiment [7] (0.1 mM or 1 mM, pre-treatment for 24 hours, FIG. 10) is on record as “improved”. For the same compound, the cell viability entry in experiment [7] (0.1 mM or 1 mM, pre-treatment for 48 hours, FIG. 11) was “improved”.

Turning to `O=C1O[C@H]([C@@H](O)CO)C(O)=C1O` [vitamin C, reference compound], the “scavenging activity on the activated ABTS radical” value in experiment [1] is reported as “concentration-dependent scavenging activity”. Besides, the “amount of intracellular ROS formed by treatment with H2O2” value in experiment [2] is given as “not decreased”. The “formation of LC3 puncta in the cells” value in experiment [5] is on record as “not increased”. Further, the cell viability result in experiment [7] (1 mM, pre-treatment for 24 hours, FIG. 10) was “rather deteriorated”; in experiment [7] (1 mM, pre-treatment for 48 hours, FIG. 11), “rather deteriorated”. Further, the viability at 100 µM in experiment [7] (Homo sapiens, Keratinocyte, 0.1 mM, pre-treatment for 24 hours, FIG. 10) is around 95%.
